Converted amounts (≈) assume the structure as drawn. “Also recorded” adds a separate entry of the source.
Tests used:
[1] = Solubility of quercetin in water and HEPES buffer saline; assay type: physicochemical
Protocol: (or 22° C.) for 60 minutes in 2 mL of the respective buffers. […] The time points for dissolution were 5, 10, 15, 30 and 60 minutes.
(38 μg/mL). A supersaturated solution of quercetin-HBS remained stable over a one-hour period once removed from heat.

[2] = test system: U87 glioblastoma cells; experiment: cells; assay type: cell-based; settings: for IC50: Homo sapiens, U-87 MG, absence of copper, 72 h
Protocol: For studies with DDC, the cell lines U87, and A549 were obtained from ATCC, HBEpC (Human Bronchial Epithelial Cells) was obtained from Cell Applications (San Deigo, Calif.) and MDA-231-BR was from the NIH/NCI. The U251MG glioblastoma cell line (formerly known as U-373 MG) was originally obtained from American Type Culture Collection (Manassas, Va.) and was used for a maximum of fifteen passages. Subsequently, the U251MG was obtained from Sigma-Aldrich (product number 09063001). […] Both cell lines are now being maintained as separate lines U251MG^O (original line) and U251MG^SA (Sigma-Aldrich). U87, U251MG^O, A549 and MDA231-BR cells were maintained in DMEM (Gibco) supplemented with 2 mM L-glutamine (Gibco) and 10% fetal bovine serum (Gibco). HBEpC were grown in bronchial/tracheal epithelial growth medium obtained from Cell Applications and were used for a maximum of three passages. All cells were maintained at 37° C. and 5% CO2 The cells were seeded into 384 well plates and allowed to grow for 24 hrs and then treated as specified for 72 hours. To assess the cytotoxic effects of the indicated compounds in adherent cell lines, the cells were stained with Hoescht 33342 and ethidium homodimer I for total and dead cell counts, respectively. Twenty minutes later, the cells were imaged using an In Cell Analyzer 2200 and cell viability was measured based on viable nuclei count. For the suspension cell line MV-4-11, cells were incubated with the PrestoBlue reagent (Life Technologies) at 37° C. and 5% CO2 for 1 hour, after which cell viability was evaluated based on metabolic activity as measured with the FLUOstar OPTIMA microplate reader (BMG Labtech).
Cytotoxicity results were obtained with an IN CELL™ Analyzer in U87 glioblastoma cells. Cell viability was assessed based on detection of plasma membrane integrity 72 hours following treatment. Total and dead cell counts were determined using Hoeschst 33342 and ethidium homodimer staining.

[3] = test system: MV-4-11 (leukemia) cells; experiment: 72 h cytotoxicity (PrestoBlue), MV-4-11 cells; assay type: cell-based, human
Protocol: (§1) For studies with DDC, the cell lines U87, and A549 were obtained from ATCC, HBEpC (Human Bronchial Epithelial Cells) was obtained from Cell Applications (San Deigo, Calif.) and MDA-231-BR was from the NIH/NCI. The U251MG glioblastoma cell line (formerly known as U-373 MG) was originally obtained from American Type Culture Collection (Manassas, Va.) and was used for a maximum of fifteen passages. Subsequently, the U251MG was obtained from Sigma-Aldrich (product number 09063001). […] Both cell lines are now being maintained as separate lines U251MG^O (original line) and U251MG^SA (Sigma-Aldrich). […] Twenty minutes later, the cells were imaged using an In Cell Analyzer 2200 and cell viability was measured based on viable nuclei count. For the suspension cell line MV-4-11, cells were incubated with the PrestoBlue reagent (Life Technologies) at 37° C. and 5% CO2 for 1 hour, after which cell viability was evaluated based on metabolic activity as measured with the FLUOstar OPTIMA microplate reader (BMG Labtech). […]
(§2) The anticancer activity of clioquinol (CQ) in cancer lines through copper dependent and independent pathways was examined. […] Cell viability was assessed based on loss of plasma membrane integrity 72 hours following treatment. Total cell count and dead cell count were determined using Hoechst 33342 and ethidium homodimer staining, respectively. […]

[4] = test system: A2780-S (human ovarian carcinoma, platinum sensitive); experiment: 72 h cytotoxicity, IN CELL Analyzer, A2780-S cells; assay type: cell-based
Protocol: FIG. 26 Clioquinol metal complex cytotoxicity in A2780-S (ovarian cancer) cells. (A) Cytotoxicity curves for CQ (-●-), Cu(CQ)2 (-▪-) and Zn(CQ)2 (-♦-) were obtained using the INCELL analyzer where viability was assessed based on loss of plasma membrane integrity 72 hours following treatment; i.e., total cell count and dead cell count were determined using Hoechst 33342 and ethidium homodimer staining, respectively. Results are given as mean ±SEM (B) IC50 values of CQ and metal complexes in A2780-S (IC50±95% CI).
The anticancer activity of clioquinol (CQ) in cancer lines through copper dependent and independent pathways was examined. Both CQ (-●-) and Cu(CQ)2 (-▪-) were dissolved in DMSO and diluted to a final concentration of <0.5% (at higher concentrations (>100 μM) of Cu(CQ)2, precipitated drug could be seen under the microscope). A2780-S (human ovarian carcinoma, platinum sensitive), A2780-CP (human ovarian carcinoma, platinum insensitive) as well as A549 (human lung cancer), U251 (human glioblastoma) cytotoxicity curves (FIG. 22 A-D) were obtained with the IN CELL Analyzer 2200. Cell viability was assessed based on loss of plasma membrane integrity 72 hours following treatment. Total cell count and dead cell count were determined using Hoechst 33342 and ethidium homodimer staining, respectively. […]

[5] = test system: A549 (lung cancer line); experiment: 72 h cytotoxicity, A549 cells; assay type: cell-based, human
Protocol: For studies with DDC, the cell lines U87, and A549 were obtained from ATCC, HBEpC (Human Bronchial Epithelial Cells) was obtained from Cell Applications (San Deigo, Calif.) and MDA-231-BR was from the NIH/NCI. The U251MG glioblastoma cell line (formerly known as U-373 MG) was originally obtained from American Type Culture Collection (Manassas, Va.) and was used for a maximum of fifteen passages. Subsequently, the U251MG was obtained from Sigma-Aldrich (product number 09063001). […] Both cell lines are now being maintained as separate lines U251MG^O (original line) and U251MG^SA (Sigma-Aldrich). […] Twenty minutes later, the cells were imaged using an In Cell Analyzer 2200 and cell viability was measured based on viable nuclei count. For the suspension cell line MV-4-11, cells were incubated with the PrestoBlue reagent (Life Technologies) at 37° C. and 5% CO2 for 1 hour, after which cell viability was evaluated based on metabolic activity as measured with the FLUOstar OPTIMA microplate reader (BMG Labtech).
as §2

[6] = test system: A2780-CP (human ovarian carcinoma, platinum insensitive); experiment: 72 h cytotoxicity, IN CELL Analyzer, A2780-CP cells; assay type: cell-based
Protocol: The anticancer activity of clioquinol (CQ) in cancer lines through copper dependent and independent pathways was examined. Both CQ (-●-) and Cu(CQ)2 (-▪-) were dissolved in DMSO and diluted to a final concentration of <0.5% (at higher concentrations (>100 μM) of Cu(CQ)2, precipitated drug could be seen under the microscope). A2780-S (human ovarian carcinoma, platinum sensitive), A2780-CP (human ovarian carcinoma, platinum insensitive) as well as A549 (human lung cancer), U251 (human glioblastoma) cytotoxicity curves (FIG. 22 A-D) were obtained with the IN CELL Analyzer 2200. Cell viability was assessed based on loss of plasma membrane integrity 72 hours following treatment. Total cell count and dead cell count were determined using Hoechst 33342 and ethidium homodimer staining, respectively. The CQ cytotoxicity curve in MV-4-11 (human leukemia) was generated using PrestoBlue reagent to establish cell viability through metabolic activity.

[7] = test system: U251 (glioblastoma line); experiment: 72 h cytotoxicity, IN CELL Analyzer, U251 cells; assay type: cell-based, human
Protocol: The U251MG glioblastoma cell line (formerly known as U-373 MG) was originally obtained from American Type Culture Collection (Manassas, Va.) and was used for a maximum of fifteen passages. […] U87, U251MG^O, A549 and MDA231-BR cells were maintained in DMEM (Gibco) supplemented with 2 mM L-glutamine (Gibco) and 10% fetal bovine serum (Gibco). […] All cells were maintained at 37° C. and 5% CO2 The cells were seeded into 384 well plates and allowed to grow for 24 hrs and then treated as specified for 72 hours. To assess the cytotoxic effects of the indicated compounds in adherent cell lines, the cells were stained with Hoescht 33342 and ethidium homodimer I for total and dead cell counts, respectively. Twenty minutes later, the cells were imaged using an In Cell Analyzer 2200 and cell viability was measured based on viable nuclei count.

[8] = test system: MV-4-11, HCT116WT, HCT116B18 and HCT116B46 cells; experiment: Cytotoxicity IC50 comparison of CX5461 with metal salts in a cell panel; assay type: cell-based
Protocol: as §1, with “(Sigma-Aldrich). U87, U251MG^O, A549 and MDA231-BR cells were maintained in DMEM (Gibco) supplemented with 2 mM L-glutamine (Gibco) and 10% fetal bovine serum (Gibco). HBEpC were grown in bronchial/tracheal epithelial growth medium obtained from Cell Applications and were used for a maximum of three passages.” for “(Sigma-Aldrich).”

[9] = test system: H460 (non-small cell lung cancer); experiment: 72-hour cytotoxicity assay, H460 cells; assay type: cell-based
[10] = Plasma elimination of CX5461, free versus liposomal; assay type: in vivo; settings: within 1 hour of injection
Protocol: Cu(DDC)2 was measured by using Cu as a surrogate marker. Samples were diluted in 0.1% HNO3 and subsequently the Cu concentration was measured using AAS (AAnalyst600, Perkin Elmer) as described above. Plasma Cu was corrected using untreated CD-1 mouse plasma as a blank. […] All other compounds were measured using HPLC as summarized below using a Waters Alliance HPLC Module 2695 and photodiode array detector model 996 and Empower 2 Software. […] Similarly, the quantification of CX5461 was performed in acidified methanol to dissociate the complex and CX5461 was measured at 300 nm following separation on a Luna C18 column (5 μm, 4.6×150 mm). The mobile phase contained a 1:1.2 mixture of 0.1% TFA in water and 0.1% TFA in methanol. A 5 μL sample volume was injected, the flow rate was set at 1 mL/min and the column temperature was 35° C.

[11] = test system: MDA-231BR (triple negative breast cancer line); experiment: 72 h cytotoxicity, IN CELL Analyzer, MDA-231BR cells; assay type: cell-based; settings: copper+DDC
Protocol: (§3) For studies with DDC, the cell lines U87, and A549 were obtained from ATCC, HBEpC (Human Bronchial Epithelial Cells) was obtained from Cell Applications (San Deigo, Calif.) and MDA-231-BR was from the NIH/NCI. The U251MG glioblastoma cell line (formerly known as U-373 MG) was originally obtained from American Type Culture Collection (Manassas, Va.) and was used for a maximum of fifteen passages. Subsequently, the U251MG was obtained from Sigma-Aldrich (product number 09063001). […] Both cell lines are now being maintained as separate lines U251MG^O (original line) and U251MG^SA (Sigma-Aldrich). U87, U251MG^O, A549 and MDA231-BR cells were maintained in DMEM (Gibco) supplemented with 2 mM L-glutamine (Gibco) and 10% fetal bovine serum (Gibco). HBEpC were grown in bronchial/tracheal epithelial growth medium obtained from Cell Applications and were used for a maximum of three passages. […] Twenty minutes later, the cells were imaged using an In Cell Analyzer 2200 and cell viability was measured based on viable nuclei count. For the suspension cell line MV-4-11, cells were incubated with the PrestoBlue reagent (Life Technologies) at 37° C. and 5% CO2 for 1 hour, after which cell viability was evaluated based on metabolic activity as measured with the FLUOstar OPTIMA microplate reader (BMG Labtech).

[12] = test system: normal human bronchial epithelial cells HBEpC; experiment: 72 h cytotoxicity, normal bronchial epithelial cells; assay type: cell-based
Protocol: as §3

[13] = Aqueous solubility of metal complexes (qualitative); assay type: physicochemical

O=c1c(O)c(-c2ccc(O)c(O)c2)oc2cc(O)cc(O)c12 [quercetin, Quercetin]
solubility at 60 min ([1]; 60 °C, water, thermodynamic from solid): 12.3 µg/mL (≈ 40.8 µM) | solubility ([1]; 60 min): 38 µg/mL (≈ 126 µM) | solubility ([1]; HBS, room temperature): 7.78 µg/mL (≈ 25.7 µM)

CCN(CC)C(=S)SSC(=S)N(CC)CC [DSF, Disulfiram]
shift in cytotoxicity in the presence of copper [2]: 2 orders of magnitude | IC50 [2]: > 10000 nM

Oc1c(I)cc(Cl)c2cccnc12 [CQ, Clioquinol]
copper dependence of CQ activity [3]: copper independent | copper dependence of CQ activity [4]: copper dependant | copper dependence of CQ activity [5]: copper dependant | copper dependence of CQ activity [6]: copper dependant | copper dependence of CQ activity [7]: copper independent

CCN(CC)C(=S)S [DDC, Diethyldithiocarbamate]
IC50 [2]: > 10000 nM

Cc1cnc(CNC(=O)c2c(=O)c3ccc(N4CCCN(C)CC4)nc3n3c2sc2ccccc23)cn1 [CX5461]
effect of equimolar copper on anti-cancer activity ([3]; 72 h): does not alter | activity (IC50) versus low pH preparation of metal-free compound ([8]; combined with CuSO4, dissolution at pH 7.4): statistically similar | activity (IC50) versus low pH preparation of metal-free compound ([8]; combined with ZnSO4, dissolution at pH 7.4): statistically similar | effect of equimolar copper on anti-cancer activity [9]: does not alter | compound removed from circulation [10]: 96%

CCN(CC)C(=S)[S-].CCN(CC)C(=S)[S-].[Cu+2] [Cu(DDC)2]
IC50 [11]: 329 nM | IC50 ([5]; copper+DDC): 880 nM | IC50 ([7]; copper+DDC): 345 nM | activity against normal cells [12]: little activity | solubility in water / aqueous solution [13]: highly insoluble; also recorded: almost completely insoluble

— US20180369143A1, “METAL COMPLEXED THERAPEUTIC AGENTS AND LIPID-BASED NANOPARTICULATE FORMULATIONS THEREOF” (BRITISH COLUMBIA CANCER AGENCY BRANCH, priority 2015, published 2018)
